Laboratory results as given in paper PMC11276905 (International Journal of Molecular Sciences, 2024).
“Also recorded” adds a separate entry of the source. Like-named read-outs stand apart in the source and are kept apart here.

Key:
[1] = molecular target: T1, isolated HNE (human neutrophil elastase) (Homo sapiens, UniProt P08246); assay: Inhibition of isolated HNE, steady-state kinetics (MeOSuc-AAPV-AMC); format: biochemical; details: for Ki: HNE 0.5 nM, incubated 1 h 37 °C, Morrison fit, mean ± SD, compound 5b in phosphate buffer pH 7.4; for inhibition of HNE (in words): negative controls
T1 construct: immediately processed to its active form in the trans-Golgi before being targeted to azurophil granules; purchased Merck (Darmstadt, Germany) 324681
T1 sequence (P08246 30-267): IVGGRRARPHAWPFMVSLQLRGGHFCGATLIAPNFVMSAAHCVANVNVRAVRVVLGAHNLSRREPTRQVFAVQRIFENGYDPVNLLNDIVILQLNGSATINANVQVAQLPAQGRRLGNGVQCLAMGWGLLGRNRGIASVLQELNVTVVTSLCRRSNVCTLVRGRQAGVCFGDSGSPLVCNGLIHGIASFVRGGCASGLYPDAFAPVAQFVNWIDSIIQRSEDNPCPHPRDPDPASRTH
Protocol: (§1) To determine the inhibition constants of reversible inhibitors with isolated HNE and HNE in cell lysates, HNE (0.5 nM) and U937 lysates (1000 cells/µL) were incubated with serial dilutions of the compounds in assay buffer at 37 °C for ≥ 1 h. Subsequently, residual HNE activity was measured as described above and compared to the activity of uninhibited HNE. […] The inhibition curves generated were fitted to Morrisons’s equation to obtain the dissociation equilibrium constant Ki with pro-Fit (Quantum Soft, Uetikon am See, Switzerland) using a Levenberg–Marquardt algorithm.

HNE in U937 lysates = molecular target: T2, HNE in U937 lysates (Homo sapiens, UniProt P08246); assay: Inhibition of HNE activity in U937 lysates; format: biochemical; details: U937 lysate 1000 cells/µL, incubated 1 h 37 °C, Morrison fit, mean ± SD
T2 construct: the myeloid cell line U937, which can differentiate into neutrophils [25] and expresses HNE; host or cells: U937 (histiocytic lymphoma), undifferentiated
T2 sequence (P08246 30-247 limits assumed): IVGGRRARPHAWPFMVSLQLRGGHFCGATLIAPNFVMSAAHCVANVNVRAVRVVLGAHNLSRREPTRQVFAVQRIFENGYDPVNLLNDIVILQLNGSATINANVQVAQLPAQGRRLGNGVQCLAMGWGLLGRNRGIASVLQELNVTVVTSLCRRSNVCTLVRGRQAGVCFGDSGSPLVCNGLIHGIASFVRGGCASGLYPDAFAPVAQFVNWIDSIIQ
Protocol: For the quantification and characterization of HNE-like activity in cell lysates, the density of the sample cell suspension was first quantified using a CASY-1 cell counter.
as §1

HNE in U937 cells = molecular target: T3, HNE in U937 cells (Homo sapiens, UniProt P08246); assay: Intracellular HNE inhibition in cultured U937 cells (residual activity in lysates); format: cell-based; details: for time course of HNE inhibition in U937 cells (in words): 0-26 h culture
T3 construct: the myeloid cell line U937, which can differentiate into neutrophils [25] and expresses HNE; host or cells: U937 (histiocytic lymphoma), undifferentiated
T3 sequence (P08246 30-247 limits assumed): T2 sequence (P08246 30-247 limits assumed)
Protocol: (§2) The enzymatic activity of HNE was measured using a fluorescence-based assay in 96-well black bottom plates (Corning®, 003916, New York, NY, USA). HNE (0.5 nM) or cell lysates (20 µL, ~100 PMN/µL, ~1000 U937/µL, ~5000 HL-60/µL or ~1000 HMC-1/µL) were diluted in assay buffer (200 mM TRIS HCl, 500 mM NaCl, 0.05% Tween-20, pH 8.0). […] AMC (7-Amino-4-methylcoumarin) standard curves were generated by measuring serial dilutions of the fluorophore AMC (1 µM–0 µM) in assay buffer on the same plate and used to calculate nM AMC generation from fluorescence measurements.
(§3) U937 cells were plated in sterile 96-U-well plates (92697, TPP, Trasadingen, Switzerland) at a density of 100 cells/µL in a cell culture medium (180 µL per well). Increasing concentrations of inhibitors and solvent controls were diluted in a culture medium and added (20 µL/well) to the 96-well plate 26 h, 6 h, 3 h, and 0 h before harvesting and lysing the cells (see below). Plates were kept at 37 °C, 5% CO2, and 95% humidity throughout the incubation period. […] Similarly, freshly isolated PMN were plated at 50–100 cells/µL in PBS (1 g/L glucose) and incubated for 1 h with inhibitors or controls.
(§4) For cell lysis, cells were pelleted in the microtiter plates by centrifugation (400× g, 10 min, 4 °C) and washed three times in PBS (4 °C). Washed cells were then lysed by adding lysis buffer (PBS, 1 M NaCl, 0.1% Tween-20, pH 7.4) and freeze–thawing on dry ice. Finally, lysates were centrifuged (2100× g) to remove cell debris. Enzymatic activity of HNE was determined as described above, and residual activity present after incubation with inhibitors expressed as % of matched solvent controls.

isolated HNE [2] = molecular target: T4, isolated HNE (Homo sapiens, UniProt P08246); assay: Formation and dissociation of the HNE/inhibitor complex (pre-steady-state kinetics); format: biochemical
T4 construct: immediately processed to its active form in the trans-Golgi before being targeted to azurophil granules; purchased Merck (Darmstadt, Germany) 324681
T4 sequence (P08246 30-267): T1 sequence (P08246 30-267)
Protocol: To determine the association rates (kon) of the inhibitors, the enzymatic activity of HNE (0.6 nM) was recorded continuously in an SFM25 fluorometer (Biotek Kontron, Neufahrn, Germany) by following the cleavage of MeOSuc-AAPV-AMC (10 µM) at 37 °C. When a constant rate was established (i.e., after 1–5 min), an inhibitor was added, and the reaction followed for up to 60 min. The pseudo-first-order rate constant kobs was obtained by fitting the observed presteady-state progress curve to the integrated equation of Morrison with pro-Fit. Apparent second-order rate constants were subsequently calculated as k2/Ki = kobs/It by linear regression from several independent experiments using a range of concentrations. For reversible inhibitors, the dissociation rate koff was subsequentially calculated as koff = Ki × kon; for irreversible inhibitors, koff is ≈ zero. Finally, the halftime of the HNE/inhibitor complex formation and dissociation were calculated as t1/2,on = 0.693/(kass × It + koff) and t1/2,off = 0.693/koff, respectively.

isolated HNE [3] = molecular target: T4, isolated HNE; design: method as in PMID 21791628; details: cited from earlier work
HNE in mature PMN = molecular target: T5, HNE in mature PMN (Homo sapiens, UniProt P08246); assay: Intracellular HNE inhibition in freshly isolated mature PMN; details: for potency in PMN compared with U937 cells (in words): PMN 1 h vs U937 0-3 h
T5 sequence (P08246 30-247 limits assumed): T2 sequence (P08246 30-247 limits assumed)
Protocol: Peripheral venous blood was collected from six healthy donors after informed consent (votum 018-09 of the local ethics committee), and differential blood counts were performed. Neutrophil granulocytes were isolated using the MACSxpress neutrophil isolation kit (Miltenyi Biotec, Bergisch Gladbach, Germany) following the manufacturer’s instructions. Residual erythrocytes were eliminated by hypotonic lysis. Neutrophils were resuspended in PBS with glucose (1 g/L) at a density of 50–100 cells/µL. The purity of the final cell population was analyzed by staining a smear using Pappenheim’s method and counting ≥200 cells using a light microscope.
as §2, §3, §4

Row | Compound | Ki [1] [µM] | Ki (HNE in U937 lysates) [µM] | inhibition of HNE (in words) [1] | potency in PMN compared with U937 cells (in words) (HNE in mature PMN) | time course of HNE inhibition in U937 cells (in words) (HNE in U937 cells) | further results
1 | N=C(N)c1ccccc1 [Benzamidine, benzamidine] | > 1000 | > 1000 | no inhibition | – | – | –
2 | CN(C(=O)c1cc2ccccc2cc1C(=O)C(c1cccc2ccccc12)P(=O)(O)O)C1CCN(C(=O)c2ccccc2)CC1 (centres unmarked) [Cathepsin G Inhibitor] | > 10 | – | no inhibition | – | – | –
3 | CC(C)[C@@H]1C(=O)N(S(C)(=O)=O)[C@@H]2CCN(C(=O)/C=C/CN3CCCCC3)[C@H]21 [GW311616] | – | – | – | somewhat less potent | inhibit HNE in U937 cells increasingly over the 26 h observation period | –

The next lines start with results.

Row | Ki [1] [µM] | Ki (HNE in U937 lysates) [µM] | inhibition of HNE (in words) [1] | potency in PMN compared with U937 cells (in words) (HNE in mature PMN) | Compound | time course of HNE inhibition in U937 cells (in words) (HNE in U937 cells) | further results
4 | 0.009 | 0.011 | – | – | Cc1c(-c2ccnn2C)cc(C(=O)NCc2ccc(S(C)(=O)=O)cn2)c(=O)n1-c1cccc(C(F)(F)F)c1 [Alvelestat, alvelestat] | – | effect on HNE activity in the U937 cell culture model (in words) (HNE in U937 cells; 0-26 h, increasing concentrations, alvelestat and sivelestat up to more than 1000-fold above Ki): no detectable effect; also recorded: no measurable effect; also recorded: do not cause detectable intracellular inhibition; half-life of the complex with HNE (in words) (isolated HNE [2]): seconds to a few minutes; koff (isolated HNE [3]): 0.057 s⁻¹; kon (isolated HNE [3]; too fast to be recorded with authors' setup): 7e+06 M⁻¹ s⁻¹; effect on HNE in mature PMN (in words) (HNE in mature PMN; 1 h incubation): negligible effect
5 | 0.00025 | 0.00034 | – | somewhat less potent | CCC[C@@H](NC(=O)N1C(=O)C(CC)(CC)[C@@H]1Oc1ccc(C(=O)N2CCN(C)CC2)cc1)c1ccc2c(c1)OCO2 [DMP 777] | inhibit HNE in U937 cells increasingly over the 26 h observation period | koff (isolated HNE [2]; koff = Ki × kon, irreversible inhibitors ≈ zero): 0.00012 s⁻¹; kon (isolated HNE [2]; pre-steady-state kinetics, HNE 0.6 nM, 37 °C, mean ± SD): 4.9 ± 0.4 × 10^5 M^−1 s^−1
